Data taken from ChEMBL document CHEMBL5338748, “Structure-Based Discovery of a New Selectivity-Enabling Motif for the FK506-Binding Protein 51” (J Med Chem, 2023).
pIC50, pKi: −log10 of the molar value. Activity calls are given as the source filed them. The calls are words filed in the database; no cut-off is given here.

Assays:
[1] = biological target: T1, Peptidyl-prolyl cis-trans isomerase FKBP4 (Homo sapiens, UniProt Q02790); test: Binding affinity to FKBP52 (unknown origin) assessed as inhibition constant by fluorescence polarization assay
T1 sequence (Q02790 whole entry): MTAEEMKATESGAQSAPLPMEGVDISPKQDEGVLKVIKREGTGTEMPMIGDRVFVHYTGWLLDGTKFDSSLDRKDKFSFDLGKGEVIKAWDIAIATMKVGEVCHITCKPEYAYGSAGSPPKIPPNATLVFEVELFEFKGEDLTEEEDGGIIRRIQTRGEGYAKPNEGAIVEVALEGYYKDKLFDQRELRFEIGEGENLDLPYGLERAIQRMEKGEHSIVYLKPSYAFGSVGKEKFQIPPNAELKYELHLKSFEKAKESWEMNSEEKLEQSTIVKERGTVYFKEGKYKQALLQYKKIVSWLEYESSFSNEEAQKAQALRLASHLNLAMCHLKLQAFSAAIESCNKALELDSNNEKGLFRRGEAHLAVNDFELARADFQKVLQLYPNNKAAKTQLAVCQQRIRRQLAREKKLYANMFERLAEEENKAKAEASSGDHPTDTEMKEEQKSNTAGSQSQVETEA

[2] = biological target: T2, Peptidyl-prolyl cis-trans isomerase FKBP5 (Homo sapiens, UniProt Q13451); test: Binding affinity to FKBP51 (unknown origin) assessed as inhibition constant by fluorescence polarization assay
T2 sequence (Q13451 whole entry): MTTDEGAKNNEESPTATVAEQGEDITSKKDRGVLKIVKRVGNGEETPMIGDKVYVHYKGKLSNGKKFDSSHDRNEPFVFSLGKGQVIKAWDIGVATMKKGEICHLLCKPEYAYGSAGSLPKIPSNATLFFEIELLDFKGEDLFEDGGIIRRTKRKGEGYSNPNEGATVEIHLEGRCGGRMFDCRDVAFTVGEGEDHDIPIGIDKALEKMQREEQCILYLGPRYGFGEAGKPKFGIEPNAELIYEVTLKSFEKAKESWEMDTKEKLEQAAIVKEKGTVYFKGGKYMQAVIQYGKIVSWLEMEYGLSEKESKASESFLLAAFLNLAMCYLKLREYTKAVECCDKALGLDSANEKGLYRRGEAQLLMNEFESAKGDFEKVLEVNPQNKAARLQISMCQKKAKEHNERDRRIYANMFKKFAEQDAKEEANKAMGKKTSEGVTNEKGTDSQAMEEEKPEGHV

[3] = biological target: T2, Peptidyl-prolyl cis-trans isomerase FKBP5; test: Binding affinity to FKBP51 (unknown origin)
[4] = Volume of distribution in C57BL/6 mouse at 10 mg/kg, ip measured after 6 hrs; format: ADME, organism-based; conditions: in vivo
[5] = Half life in C57BL/6 mouse at 10 mg/kg, ip measured after 6 hrs; format: ADME, organism-based; conditions: in vivo
[6] = Cmax in C57BL/6 mouse at 10 mg/kg, ip measured after 6 hrs; format: ADME, organism-based; set-up: time 6 hrs, dose 10 mg/kg, route ip; conditions: in vivo
[7] = biological target: T1, Peptidyl-prolyl cis-trans isomerase FKBP4; test: Inhibition of FKBP52 (unknown origin) expressed in HEK293T cells incubated for 2 hrs by NanoBRET assay; format: cell-based
[8] = biological target: T2, Peptidyl-prolyl cis-trans isomerase FKBP5; test: Inhibition of FKBP51 (unknown origin) expressed in HEK293T cells incubated for 2 hrs by NanoBRET assay; format: cell-based
[9] = Tmax in C57BL/6 mouse at 10 mg/kg, ip measured after 6 hrs; format: ADME, organism-based; conditions: in vivo
[10] = Drug accumulation in C57BL/6 mouse gonadal white adipose tissue at 10 mg/kg, ip administered as single dose and measured after 6 hrs; format: ADME, organism-based; conditions: in vivo
[11] = biological target: Transient receptor potential cation channel subfamily V member 1 (Mus musculus) (UniProt Q704Y3); test: Desensitization of TRPV1 in naive C57BL/Nrj mouse dorsal root ganglion primary sensory neurons assessed as reduction in capsaicin-stimulated calcium influx at 1 uM preincubated for 2 mins followed by capsaicin stimulation and measured after 20 secs relative to control; format: tissue-based; set-up: scale not given: the % may be the effect or the level left; conditions: Primary sensory neuron, time 140.0 sec
Transient receptor potential cation channel subfamily V member 1 (Mus musculus), sequence (Q704Y3 whole entry): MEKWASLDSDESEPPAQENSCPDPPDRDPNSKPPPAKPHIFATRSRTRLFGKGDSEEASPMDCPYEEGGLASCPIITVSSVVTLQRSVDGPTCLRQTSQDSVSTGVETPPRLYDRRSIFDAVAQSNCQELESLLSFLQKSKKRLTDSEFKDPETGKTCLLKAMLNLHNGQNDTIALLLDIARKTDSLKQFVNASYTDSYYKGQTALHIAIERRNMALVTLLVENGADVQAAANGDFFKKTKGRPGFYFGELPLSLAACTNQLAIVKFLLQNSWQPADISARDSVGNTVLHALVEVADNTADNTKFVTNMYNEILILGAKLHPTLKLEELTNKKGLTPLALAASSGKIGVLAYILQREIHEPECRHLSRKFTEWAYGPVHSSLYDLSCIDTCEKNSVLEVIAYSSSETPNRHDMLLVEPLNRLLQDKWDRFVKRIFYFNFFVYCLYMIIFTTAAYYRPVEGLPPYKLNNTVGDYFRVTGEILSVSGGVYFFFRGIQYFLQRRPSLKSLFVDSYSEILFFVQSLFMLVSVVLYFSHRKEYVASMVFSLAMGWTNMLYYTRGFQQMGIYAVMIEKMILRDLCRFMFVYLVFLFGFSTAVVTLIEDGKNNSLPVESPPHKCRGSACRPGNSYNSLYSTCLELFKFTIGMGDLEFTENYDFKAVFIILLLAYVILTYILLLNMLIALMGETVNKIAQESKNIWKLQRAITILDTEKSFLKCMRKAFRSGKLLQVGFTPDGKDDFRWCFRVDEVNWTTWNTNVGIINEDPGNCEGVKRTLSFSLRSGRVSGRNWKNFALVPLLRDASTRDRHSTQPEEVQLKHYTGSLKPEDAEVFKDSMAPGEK

[12] = Drug penetration in C57BL/6 mouse brain at 10 mg/kg, ip administered as single dose and measured after 6 hrs; format: ADME, organism-based; conditions: in vivo
[13] = biological target: Transient receptor potential cation channel subfamily V member 1 (Mus musculus) (UniProt Q704Y3); test: Desensitization of TRPV1 in C57BL/Nrj mouse dorsal root ganglion primary sensory neurons assessed as reduction in capsaicin-stimulated calcium influx at 0.5 uM preincubated for 2 mins followed by capsaicin stimulation and measured after 20 secs; format: tissue-based; conditions: Primary sensory neuron, time 140.0 sec

Q: What does the source list for COc1ccc(CC[C@@H](OC(=O)[C@@H]2CCCCN2C(=O)[C@H](c2cc(OC)c(OC)c(OC)c2)c2ccc(Cl)s2)c2cccc(OCC(=O)O)c2)cc1OC?
A: pKi [1]: 6.02; pKi [2]: 8.40

Q: With COc1ccc(CC[C@@H](OC(=O)[C@@H]2CCCCN2C(=O)[C@H](c2cc(OC)c(OC)c(OC)c2)C2CCCCC2)c2cccc(OCC(=O)O)c2)cc1OC as the molecule, how does the pKi [1] read?
A: 5.41

Q: And the pKi [2]?
A: 8.22

Q: With COc1ccc(CC[C@H]2OC(=O)[C@@H]3CCCCN3C(=O)[C@@H](C3CCCCC3)c3cc(OC)c(OC)c(c3)OC[C@H](O)[C@H](O)COc3cccc2c3)cc1OC as the molecule, how does the pKi [3] read?
A: 8.30

Q: With COc1ccc(CC[C@@H](OC(=O)[C@@H]2CCCCN2C(=O)[C@H](c2cc(OC)c(OC)c(OC)c2)c2ccc(C3CC3)s2)c2cccc(OCC(=O)O)c2)cc1OC as the molecule, how does the pKi [1] read?
A: < 6.00

Q: And the pKi [2]?
A: 7.39

Q: What does the source list for COc1ccc(CC[C@@H](OC(=O)[C@@H]2CCCCN2C(=O)[C@H](c2cc(OC)c(OC)c(OC)c2)c2ccc(Br)s2)c2cccc(OCC(=O)O)c2)cc1OC?
A: pKi [1]: 6.36; pKi [2]: 8.15

Q: With C=CC[C@@H](C(=O)N1CCCC[C@H]1C(=O)O[C@H](CCc1ccc(OC)c(OC)c1)c1cccc(OCC(=O)O)c1)c1ccc(Cl)s1 as the molecule, how does the pKi [1] read?
A: < 5.00

Q: What about the pKi [2] of the same molecule?
A: 6.65

Q: With COc1ccc(CC[C@H]2OC(=O)[C@@H]3CCCCN3C(=O)[C@@H](C3CCCCC3)NC(=O)C3(CC3)NC(=O)COc3cccc2c3)cc1OC as the molecule, how does the pKi [3] read?
A: 6.40

Q: Which results are given for COc1ccc(CC[C@@H](OC(=O)[C@@H]2CCCCN2C(=O)[C@H](c2cc(OC)c(OC)c(OC)c2)c2ccc(C#N)s2)c2cccc(OCC(=O)O)c2)cc1OC?
A: pKi [1]: 5.56; pKi [2]: 7.64

Q: Which results are given for COc1ccc(CC[C@@H](OC(=O)[C@@H]2CCCCN2C(=O)C(c2cccs2)C2CCCCC2)c2cccc(OCC(=O)O)c2)cc1OC (stereo partly specified)?
A: pKi [1]: < 4.52; pKi [2]: 6.35

Q: Which Vd [4] does the source give for COc1ccc(CC[C@@H](OC(=O)[C@@H]2CCCCN2C(=O)[C@@H](CN2CCOCC2)c2cc(OC)c(OC)c(OC)c2)c2cccc(OCC(=O)O)c2)cc1OC here?
A: 0.1 L

Q: And the half-life [5]?
A: 3.7 h

Q: What about the Cmax [6] of the same molecule?
A: 3060 ng/mL

Q: And the pKi [1]?
A: 5.67

Q: And the pIC50 [7]?
A: 5.50

Q: And the pIC50 [8]?
A: 6.71

Q: And the pKi [2]?
A: 8.10

Q: And the Tmax [9]?
A: 1 h

Q: With CC[C@@H](C(=O)N1CCCC[C@H]1C(=O)O[C@H](CCc1ccc(OC)c(OC)c1)c1cccc(OCC(=O)O)c1)c1ccc(Cl)s1 as the molecule, how does the pKi [1] read?
A: < 5.00

Q: And the pKi [2]?
A: 6.68

Q: Which results are given for COc1ccc(CCC(OC(=O)C2CCCCN2C(=O)[C@H](c2cc(OC)c(OC)c(OC)c2)c2ccc(Cl)s2)c2cccc(OCCN3CCOCC3)c2)cc1OC (single isomer, unassigned)?
A: Vd [4]: 0.3 L; half-life [5]: 4.3 h; Cmax [6]: 990 ng/mL; Drug uptake [10]: Active; pKi [1]: 6.11; pIC50 [7]: 5.54; Activity [11]: 50%; pIC50 [8]: 6.23; pKi [2]: 7.72; Tmax [9]: 0.5 h; Drug uptake [12]: Active

Q: What does the source list for COc1ccc(CC[C@@H](OC(=O)[C@@H]2CCCCN2C(=O)[C@H](C)c2ccc(Cl)s2)c2cccc(OCC(=O)O)c2)cc1OC?
A: pKi [1]: < 4.30; pKi [2]: 6.52

Q: Which results are given for COc1ccc(CCC(OC(=O)C2CCCCN2C(=O)[C@H](c2cc(OC)c(OC)c(OC)c2)c2ccc(C)s2)c2cccc(OCCN3CCOCC3)c2)cc1OC (single isomer, unassigned)?
A: pKi [1]: 6.11; Activity [11]: 50%; pIC50 [8]: 6.21; pKi [2]: 7.77; Activity [13]: Active

Q: With COc1ccc(CC[C@@H](OC(=O)[C@@H]2CCCCN2C(=O)C(c2ccc(Cl)s2)C2CCCCC2)c2cccc(OCC(=O)O)c2)cc1OC (stereo partly specified) as the molecule, how does the pKi [1] read?
A: < 5.00

Q: And the pKi [2]?
A: 6.81

Q: With COc1ccc(CC[C@@H](OC(=O)[C@@H]2CCCCN2C(=O)[C@@H](c2ccsc2)c2cc(OC)c(OC)c(OC)c2)c2cccc(OCC(=O)O)c2)cc1OC as the molecule, how does the pKi [1] read?
A: 4.75

Q: And the pKi [2]?
A: 6.85

Q: With COc1ccc(CC[C@@H](OC(=O)[C@@H]2CCCCN2C(=O)[C@@H](c2ccccc2)c2cc(OC)c(OC)c(OC)c2)c2cccc(OCC(=O)O)c2)cc1OC as the molecule, how does the pKi [1] read?
A: 4.36

Q: And the pKi [2]?
A: 6.93

Q: With CCc1ccc([C@H](C(=O)N2CCCC[C@H]2C(=O)O[C@H](CCc2ccc(OC)c(OC)c2)c2cccc(OCC(=O)O)c2)c2cc(OC)c(OC)c(OC)c2)s1 as the molecule, how does the pKi [1] read?
A: < 6.00

Q: What about the pKi [2] of the same molecule?
A: 7.89

Q: Which results are given for COc1ccc(CC[C@@H](OC(=O)[C@@H]2CCCCN2C(=O)[C@H](c2cc(OC)c(OC)c(OC)c2)c2ccc(C)s2)c2cccc(OCC(=O)O)c2)cc1OC?
A: pKi [1]: 5.99; pKi [2]: 8.15

Q: With COc1ccc(CC[C@@H](OC(=O)[C@@H]2CCCCN2C(=O)[C@H](c2cc(OC)c(OC)c(OC)c2)c2cccs2)c2cccc(OCC(=O)O)c2)cc1OC as the molecule, how does the pKi [1] read?
A: 4.99

Q: What about the pKi [2] of the same molecule?
A: 6.99
